Values of other authors, collected in patent US20220305127A1, “PYRROLOBENZODIAZEPINE ANTIBODY CONJUGATES” (priority 2017, published 2022).

Settings: Phase I clinical evaluation

Structure (SMILES): C=C1C[C@H]2C=Nc3cc(OCCCOc4cc5c(cc4OC)C(=O)N4CC(=C)C[C@H]4C=N5)c(OC)cc3C(=O)N2C1 [SJG-136]
- DNA damage in circulating lymphocytes: noted at all doses
- adverse effects: vascular leak syndrome, peripheral edema, liver toxicity and fatigue
- maximum tolerated dose: 45 μg/m^2
